Entries after “also recorded” stand apart in the source; their conditions may differ. Counter-ions that a name gives are not always drawn. Like-named read-outs stand apart in the source and are kept apart here.
How the values were obtained:
MOR [1] = target: T1, MOR (Rattus norvegicus, UniProt P33535); assay: competition radioligand binding, rat brain membranes, [3H]DAMGO; conditions: for Ki: rat brain membranes, read-out: opioid receptor binding Ki MOR
T1 construct: Membranes were prepared from Sprague-Dawley rat brains or guinea-pig brains according to the described procedures; tissue Labortierkunde und Laborgenetik, Medizinische Universität Wien; host or cells: Sprague-Dawley rat brain without cerebella

DOR [2] = target: T2, DOR (Rattus norvegicus, UniProt P33533); assay: competition radioligand binding, rat brain membranes, [3H][Ile5,6]deltorphin II; conditions: for Ki: rat brain membranes, read-out: opioid receptor binding Ki DOR
T2 construct: Membranes were prepared from Sprague-Dawley rat brains or guinea-pig brains according to the described procedures; tissue Labortierkunde und Laborgenetik, Medizinische Universität Wien; host or cells: Sprague-Dawley rat brain without cerebella

KOR [3] = target: T3, KOR (Cavia porcellus, UniProt P41144); assay: competition radioligand binding, guinea-pig brain membranes, [3H]U69,593; conditions: guinea-pig brain membranes; read-out: opioid receptor binding Ki KOR
T3 construct: Membranes were prepared from Sprague-Dawley rat brains or guinea-pig brains according to the described procedures; tissue Labortierkunde und Laborgenetik, Medizinische Universität Wien; host or cells: guinea-pig brain without cerebella

MOR [4] = target: T4, MOR (Homo sapiens, UniProt P35372); assay: [35S]GTPγS binding assay, CHO-hMOR membranes; type: biochemical; conditions: for Emax: relative to reference full agonist DAMGO, read-out: MOR % stim.
T4 construct: host or cells: CHO (CHO-hMOR)

DOR [5] = target: T5, DOR (Homo sapiens, UniProt P41143); assay: [35S]GTPγS binding assay, CHO-hDOR membranes; type: biochemical; conditions: for EC50: [35S]GTPγS, CHO human DOR membranes; for Emax: relative to reference full agonist DPDPE, read-out: DOR % stim.
T5 construct: host or cells: CHO (CHO-hDOR)

KOR [6] = target: T6, KOR (Homo sapiens, UniProt P41145); assay: [35S]GTPγS binding assay, CHO-hKOR membranes; type: biochemical; conditions: for Emax: relative to reference full agonist U69,593, read-out: KOR % stim.
T6 construct: host or cells: CHO (CHO-hKOR)

MOR [7] = target: T4, MOR; assay: competition radioligand binding, CHO cell membranes expressing human MOR, [3H]DAMGO
Experimental: (§1) Membranes from CHO cells expressing human opioid receptors were prepared in 50 mM Tris-HCl buffer (pH 7.7) according to a previously described procedure.[64] Cells expressing human opioid receptors grown at confluence were removed from the culture plates by scraping, homogenized in 50 mM Tris buffer (pH 7.7), using a Polytron homogenizer, then centrifuged once and washed by an additional centrifugation at 27 000g for 15 min, at 4 °C. The final pellet was resuspended in Tris buffer and stored at −80 °C until use. Protein content of brain and cell membrane preparation homogenates was determined by the method of Bradford using bovine serum albumin as the standard.[65]
(§2) Rat brain membranes were incubated with either [^3H]DAMGO (1 nM, 45 min, 35 °C) or [^3H][Ile^5,6]deltorphin II (0.5 nM, 45 min, 35 °C) for labeling MOR or DOR receptors, respectively. Guinea-pig brain membranes were incubated with [^3H]U69,593 (1 nM, 30 min, 30 °C) for labeling KOR. Binding assays with CHO cell membranes were conducted at 25 °C for 60 min using [^3H]DAMGO (1 nM) or [^3H]diprenorphine (0.2 nM) for labeling MOR or DOR, respectively. Nonspecific binding was determined using 10 μM naloxone (rodent brain) or 1–10 μM of the unlabeled counterpart of each radioligand (CHO cells). Reactions were terminated by rapid filtration through Whatman glass fiber GF/C filters. Filters were washed three times with 5 mL of ice-cold 50 mM Tris-HCl buffer (pH 7.4) using a Brandel M24R cell harvester (Gaithersburg, MD). Radioactivity retained on the filters was counted by liquid scintillation counting using a Beckman Coulter LS6500 (Beckman Coulter Inc., Fullerton, CA). All binding experiments were performed in duplicate and repeated at least three times.
(§3) aDetermined in competition radioligand binding assays using CHO cell membranes expressing
(§4) human MOR and DOR. Values represent the mean ± SEM of three independent experiments each

DOR [8] = target: T5, DOR; assay: competition radioligand binding, CHO cell membranes expressing human DOR, [3H]diprenorphine
Experimental: as §1, §2, §3, §4

[9] = tested on: peripheral opioid receptors; assay: antagonism by naloxone methiodide in the acetic acid-induced writhing assay; type: in vivo, mouse; conditions: sc co-administration with naloxone methiodide 1 mg/kg; agonist 50 or 200 μg/kg sc; 30 min
Excerpt: To determine whether targeted 6-amino acid and 6-dipeptide analogues inhibit writhing behavior in mice through peripheral opioid receptors activation, we used naloxone methiodide.[27]
Values are shown as mean of writhes ± SEM (n = 6–7 mice per group). ***P < 0.001 vs control group; ^#P < 0.05, ^##P < 0.01 and ^###P < 0.001 vs agonist treated group, ANOVA with Tukey’s post hoc test.
Writhing was induced in male CD1 mice by ip injection of a 0.6% acetic acid aqueous solution as described previously.[48],[62] Groups of mice were administered sc different doses of test compound or saline (control), and 5 min prior to testing (25 min after drug or saline), each animal received an ip injection of acetic acid solution. Each mouse was placed in individual transparent Plexiglas chambers, and the number of writhes was counted during a 10 min observation period. […] For the antagonism study, naloxone methiodide was sc co-administered with the respective opioid agonist, and writhing was assessed as described above.

male CD1 mice [10] = assay: acetic acid-induced writhing assay after sc administration; type: in vivo, mouse; conditions: Mus musculus, 0.5 h, read-out: ED50 (95% CI), mice, sc, inhibition of writhing 30 min after drug administration
male CD1 mice [11] = conditions: sc; cited from earlier work
MOR [12] = conditions: systemic sc 2b, icv CTAP; cited from earlier work
mouse = tested on: mouse; set-up: method as in PMID 25721395; conditions: systemic ip administration; cited from earlier work
rats = tested on: rats; set-up: method as in PMID 16339394; conditions: given orally; cited from earlier work
[13] = [35S]GTPγS, CHO human MOR membranes, read-out: MOR EC50
[14] = [35S]GTPγS, CHO human KOR membranes, read-out: KOR EC50

Row | SMILES | Ki (MOR [1]) | Ki (DOR [2]) | Ki (KOR [3]) | EC50 (MOR [4]; [13]) | Emax (MOR [4]) | EC50 (DOR [5]) | Emax (DOR [5]) | EC50 (KOR [6]; [14]) | Emax (KOR [6]) | Ki (MOR [7]) | Ki (DOR [8]) | effect of naloxone methiodide on antinociceptive effect [9] | ED50 (male CD1 mice [10]) | further results
1 | CC[C@H](N[C@@H]1CC[C@@]2(OC)[C@H]3Cc4ccc(O)c5c4[C@@]2(CCN3C)[C@H]1O5)C(=O)O [Compound 19b, (2S)-2-[(4,5α-Epoxy-3-hydroxy-14β-methoxy-17-methylmorphinan-6β-yl)amino]-2-ethylacetic Acid Dihydrochloride] | 1.83 ± 0.04 nM | 1.3 ± 0.24 nM | 201 ± 10 nM | 5.47 ± 1.18 nM | ~80% | 2.22 ± 1.64 nM | 100 ± 3% | 572 ± 18 nM | 72 ± 0.5% | 2.1 ± 0.33 nM | 1.99 ± 0.84 nM | antagonized | – | increased agonist potency at DOR vs MOR (DOR [5]; [35S]GTPγS EC50): 2–4 times
2 | CO[C@@]12CC[C@@H](N[C@H](C(=O)O)C3CCCCC3)[C@@H]3Oc4c(O)ccc5c4[C@@]31CCN(C)[C@@H]2C5 [Compound 18b, (2S)-2-[(4,5α-Epoxy-3-hydroxy-14β-methoxy-17-methyl-morphinan-6β-yl)-amino]-2-cyclohexylacetic Acid Dihydrochloride] | 1.66 ± 1.04 nM | 1.3 ± 0.16 nM | 118 ± 23 nM | 5.33 ± 0.89 nM | 86 ± 9% | 3.57 ± 1.63 nM | 96 ± 10% | 282 ± 58 nM | 59 ± 7% | – | – | antagonized | – | –
3 | CO[C@@]12CC[C@@H](N[C@@H](CCCCN)C(=O)O)[C@@H]3Oc4c(O)ccc5c4[C@@]31CCN(C)[C@@H]2C5 [Compound 8b, (2S)-6-Amino-2-[(4,5α-epoxy-3-hydroxy-14β-methoxy-17-methylmorphinan-6β-yl)amino]hexanoic Acid Trihydrochloride] | 0.53 ± 0.09 nM | 3.34 ± 0.46 nM | 33.7 ± 4.1 nM | 6.85 ± 1.39 nM | 90 ± 7% | 45.1 ± 22.7 nM | 93 ± 8% | 525 ± 24 nM | 62 ± 7% | – | – | antagonized | – | –
4 | CO[C@@]12CC[C@H](N[C@H](C(=O)O)C3CCCCC3)[C@@H]3Oc4c(O)ccc5c4[C@@]31CCN(C)[C@@H]2C5 [Compound 18a, (2S)-2-[(4,5α-Epoxy-3-hydroxy-14β-methoxy-17-methyl-morphinan-6α-yl)-amino]-2-cyclohexylacetic Acid Dihydrochloride] | 1.23 ± 0.2 nM | 14.3 ± 0.09 nM | 177 ± 30 nM | 2.88 ± 1.21 nM | 86 ± 8% | 20.5 ± 8 nM | 101 ± 1% | 250 ± 80 nM | 52 ± 6% | – | – | reversed | 0.0206 mg/kg | Ki ratio MOR/DOR/KOR (MOR [1]; from Ki in rat (MOR, DOR) and guinea-pig (KOR) brain membranes): 1/12/144; decreased DOR affinity vs 6β analogue (DOR [2]; rat brain, 18a vs 18b, 19a vs 19b): 11 times
5 | CO[C@@]12CC[C@@H](NCC(=O)O)[C@@H]3Oc4c(O)ccc5c4[C@@]31CCN(C)[C@@H]2C5 [Compound 2b, 2-[(4,5α-Epoxy-3-Hydroxy-14β-Methoxy-17-Methylmorphinan-6β-yl)Amino]Acetic Acid] | – | – | – | – | 98 ± 9% | – | – | – | 82 ± 9% | 0.9 ± 0.14 nM | 10.1 ± 2.7 nM | reversed; also recorded: antagonized | 0.0275 mg/kg | EC50 (MOR [4]): 3.78 ± 0.73 nM; EC50 (KOR [6]): 361 ± 154 nM; more potent than morphine in inhibiting the writhing response (male CD1 mice [11]): 24 times; effect of intracerebroventricular CTAP on antinociceptive effects (MOR [12]): did not reverse; effect of naloxone methiodide on antinociceptive effects (mouse): completely antagonized; effect of sc naloxone methiodide on antihyperalgesic effects (rats): reversed

Reference: PMC6348443 (Journal of Medicinal Chemistry, 2018)
